Results: ChEMBL document CHEMBL4402585 (J Med Chem, 2020)

Assays:
[1] = Half life in mouse at 3 mg/kg, po by LC-MS/MS analysis; type: ADME, organism-based; details: in vivo
[2] = Toxicity in human MV4-11 cells xenografted mouse assessed as change in body weight at 6.25 to 12.5 mg/kg, po administered for 28 days and measured every 2 to 3 days during compound dosing; type: organism-based; details: in vivo
[3] = AUC (0 to t) in Sprague-Dawley rat at 1 mg/kg, iv by LC-MS/MS analysis; type: ADME, organism-based; details: in vivo
[4] = Half life in dog liver microsomes at 0.1 uM preincubated for 10 mins followed by NADPH addition and measured up to 60 mins by LC-MS/MS analysis; type: ADME, Canis lupus familiaris, Microsome
[5] = Clearance in monkey liver microsomes at 0.1 uM preincubated for 10 mins followed by NADPH addition and measured up to 60 mins by LC-MS/MS analysis; type: ADME, Macaca mulatta, Microsome; details: rhesus monkey, 1 h
[6] = Cmax in mouse at 3 mg/kg, po by LC-MS/MS analysis; type: ADME, organism-based; set-up: dose 3 mg/kg, route oral; details: in vivo
[7] = Volume of distribution at steady state in Sprague-Dawley rat at 1 mg/kg, iv by LC-MS/MS analysis; type: ADME, organism-based; details: in vivo, read-out: Vdss
[8] = biological target: Bromodomain-containing protein 3 (Homo sapiens, UniProt Q15059); experiment: Binding affinity to human partial length BRD3 BD2 (G306 to P416 residues) expressed in bacterial expression system by bromoscan assay
[9] = AUC (0 to t) in mouse at 3 mg/kg, iv by LC-MS/MS analysis; type: ADME, organism-based; details: in vivo
[10] = Half life in Sprague-Dawley rat at 1 mg/kg, iv by LC-MS/MS analysis; type: ADME, organism-based; details: in vivo
[11] = biological target: Bromodomain-containing protein 4 (Homo sapiens, UniProt O60885)
Description: Binding affinity to N-terminal His6-tagged BRD4 bromodomain 1 (49 to 170 residues) (unknown origin) expressed in Escherichia coli BL21 (DE3) assessed as change in melting temperature at 1:100 molar ratio by SYPRO orange dye based fluorescence thermal shift assay

[12] = biological target: Voltage-gated inwardly rectifying potassium channel KCNH2 (Homo sapiens, UniProt Q12809); experiment: Inhibition of human ERG at 40 uM by Qpatch automatic patch clamp method
[13] = AUC (0 to t) in mouse at 3 mg/kg, po by LC-MS/MS analysis; type: ADME, organism-based; details: in vivo
Cytochrome P450 2D6 = Cytochrome P450 2D6 (Homo sapiens, UniProt P10635); experiment: Inhibition of CYP2D6 in human liver microsomes using dextromethorphan as substrate preincubated for 10 mins followed by NADPH addition and measured after 15 mins by LC-MS/MS analysis; type: ADME
MV4-11 = experiment: Antiproliferative activity against human MV4-11 cells assessed as reduction in cell viability measured after 72 hrs by Celltitre-glo luminescence assay; type: functional, cell-based; details: MV4-11, 72 h
Cytochrome P450 2C9 = Cytochrome P450 2C9 (Homo sapiens, UniProt P11712); experiment: Inhibition of CYP2C9 in human liver microsomes using tolbutamide as substrate preincubated for 10 mins followed by NADPH addition and measured after 15 mins by LC-MS/MS analysis; type: ADME
Cytochrome P450 2C9, sequence (P11712 whole entry): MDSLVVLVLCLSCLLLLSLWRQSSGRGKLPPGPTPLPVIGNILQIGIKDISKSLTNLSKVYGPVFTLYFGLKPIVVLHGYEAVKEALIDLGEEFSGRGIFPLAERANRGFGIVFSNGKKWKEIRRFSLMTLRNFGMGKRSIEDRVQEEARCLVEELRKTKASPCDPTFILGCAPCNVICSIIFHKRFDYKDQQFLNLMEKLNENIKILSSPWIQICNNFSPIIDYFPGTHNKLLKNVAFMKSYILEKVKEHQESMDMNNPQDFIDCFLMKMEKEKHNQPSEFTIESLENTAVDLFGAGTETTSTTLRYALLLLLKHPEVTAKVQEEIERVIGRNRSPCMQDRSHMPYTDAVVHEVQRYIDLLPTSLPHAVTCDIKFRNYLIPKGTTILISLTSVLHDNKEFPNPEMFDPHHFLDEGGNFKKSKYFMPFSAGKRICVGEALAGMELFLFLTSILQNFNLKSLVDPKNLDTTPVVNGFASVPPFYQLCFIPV

Voltage-gated inwardly rectifying potassium channel KCNH2, sequence (Q12809 whole entry): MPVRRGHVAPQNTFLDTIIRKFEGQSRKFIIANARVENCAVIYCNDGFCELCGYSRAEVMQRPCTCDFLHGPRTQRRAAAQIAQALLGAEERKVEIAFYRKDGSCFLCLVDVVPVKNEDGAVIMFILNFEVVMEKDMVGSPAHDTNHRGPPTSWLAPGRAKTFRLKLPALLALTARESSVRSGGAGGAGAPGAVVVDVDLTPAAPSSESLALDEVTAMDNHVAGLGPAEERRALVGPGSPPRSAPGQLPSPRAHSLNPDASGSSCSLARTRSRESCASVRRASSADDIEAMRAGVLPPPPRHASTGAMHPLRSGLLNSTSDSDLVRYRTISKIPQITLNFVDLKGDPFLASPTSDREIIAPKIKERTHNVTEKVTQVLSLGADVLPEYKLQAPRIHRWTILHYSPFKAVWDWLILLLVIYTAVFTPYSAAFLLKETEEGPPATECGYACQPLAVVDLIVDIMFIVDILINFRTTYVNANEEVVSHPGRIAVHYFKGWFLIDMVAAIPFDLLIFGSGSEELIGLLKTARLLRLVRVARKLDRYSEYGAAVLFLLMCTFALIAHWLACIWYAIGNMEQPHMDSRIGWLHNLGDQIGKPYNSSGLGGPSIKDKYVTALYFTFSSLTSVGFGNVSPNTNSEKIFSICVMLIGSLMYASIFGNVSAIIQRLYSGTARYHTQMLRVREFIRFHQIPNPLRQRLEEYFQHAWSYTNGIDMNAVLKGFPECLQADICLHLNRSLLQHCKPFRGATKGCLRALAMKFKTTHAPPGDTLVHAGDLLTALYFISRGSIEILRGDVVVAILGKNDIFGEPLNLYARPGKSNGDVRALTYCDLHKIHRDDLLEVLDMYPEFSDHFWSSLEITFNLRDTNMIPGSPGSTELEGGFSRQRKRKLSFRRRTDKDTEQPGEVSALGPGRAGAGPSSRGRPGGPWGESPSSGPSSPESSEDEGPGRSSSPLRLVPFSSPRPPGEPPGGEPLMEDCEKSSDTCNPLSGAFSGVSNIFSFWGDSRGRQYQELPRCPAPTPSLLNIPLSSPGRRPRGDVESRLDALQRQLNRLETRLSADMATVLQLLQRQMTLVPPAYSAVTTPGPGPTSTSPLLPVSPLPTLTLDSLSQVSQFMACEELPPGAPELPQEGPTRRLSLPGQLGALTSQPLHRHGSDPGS
Cytochrome P450 2D6, sequence (P10635 whole entry): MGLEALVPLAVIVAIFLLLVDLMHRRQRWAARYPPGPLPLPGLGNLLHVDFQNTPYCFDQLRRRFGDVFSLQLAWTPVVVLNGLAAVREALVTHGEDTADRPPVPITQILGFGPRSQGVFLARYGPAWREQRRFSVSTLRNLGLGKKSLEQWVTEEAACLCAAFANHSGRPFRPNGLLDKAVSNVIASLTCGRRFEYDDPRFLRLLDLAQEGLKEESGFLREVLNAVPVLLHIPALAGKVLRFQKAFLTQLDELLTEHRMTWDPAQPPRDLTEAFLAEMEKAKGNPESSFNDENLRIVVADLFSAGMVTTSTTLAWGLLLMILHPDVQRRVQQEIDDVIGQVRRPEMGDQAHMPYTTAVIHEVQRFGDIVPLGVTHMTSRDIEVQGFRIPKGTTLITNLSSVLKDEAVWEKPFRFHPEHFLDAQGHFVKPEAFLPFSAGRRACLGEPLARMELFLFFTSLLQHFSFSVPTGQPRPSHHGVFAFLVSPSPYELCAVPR
Bromodomain-containing protein 3, sequence (Q15059 whole entry, the tested form may be a part): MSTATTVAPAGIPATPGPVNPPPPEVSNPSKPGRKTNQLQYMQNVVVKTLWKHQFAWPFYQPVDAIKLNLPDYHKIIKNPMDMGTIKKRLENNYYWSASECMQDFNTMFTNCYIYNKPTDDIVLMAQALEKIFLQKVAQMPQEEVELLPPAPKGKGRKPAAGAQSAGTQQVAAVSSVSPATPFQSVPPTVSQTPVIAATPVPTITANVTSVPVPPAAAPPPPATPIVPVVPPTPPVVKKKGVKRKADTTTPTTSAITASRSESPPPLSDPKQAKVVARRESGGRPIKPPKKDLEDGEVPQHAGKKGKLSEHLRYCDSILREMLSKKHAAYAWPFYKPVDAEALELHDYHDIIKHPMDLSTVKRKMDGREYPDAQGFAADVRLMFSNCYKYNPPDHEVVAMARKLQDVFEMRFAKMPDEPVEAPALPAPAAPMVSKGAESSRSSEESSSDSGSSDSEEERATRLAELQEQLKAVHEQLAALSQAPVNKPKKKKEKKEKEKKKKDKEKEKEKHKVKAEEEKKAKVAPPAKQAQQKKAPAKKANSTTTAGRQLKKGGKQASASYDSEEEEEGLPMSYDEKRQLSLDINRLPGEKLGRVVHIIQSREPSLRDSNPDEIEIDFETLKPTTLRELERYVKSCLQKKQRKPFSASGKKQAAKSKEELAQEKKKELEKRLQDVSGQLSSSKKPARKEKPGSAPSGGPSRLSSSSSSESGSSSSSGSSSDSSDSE

In the case of `CCS(=O)(=O)Cc1cnc(Oc2ccc(F)cc2F)c(-c2cc(C)c3c(=O)[nH]ccn23)c1`, the half-life [1] is reported as 1.3 h, the Activity [2] is reported as “Non-Toxic” and the AUC(0-t) [3] is reported as 848 ng·h/mL. The half-life at 0.1 µM [4] was 1.39 h, the CLH [5] was 42.7 mL/min/g and the Cmax [6] was 399 ng/mL. For the same molecule, the Vd [7] was 1.46 L/kg, the Kd [8] was 1 nM and the AUC(0-t) [9] was 3270 ng·h/mL. For the same molecule, the half-life [10] was 1.3 h, the ΔTm [11] was greater than 1 °C and the “inhibition (INH)” value [12] was “Not Active”. The AUC(0-t) [13] was 1710 ng·h/mL, the IC50 (Cytochrome P450 2D6) was greater than 20000 nM and the IC50 (MV4-11) was 2.4 nM. The IC50 (Cytochrome P450 2C9) was greater than 20000 nM.
